Test results taken from patent publication US10696693B2, “Fused imidazole derivatives as TGF-beta inhibitors” (Rigel Pharmaceuticals, Inc., priority 2014, dated 2020).
Like-named read-outs stand apart in the source and are kept apart here.

Columns and labels:
[1] = tested on: GDF8; assay: AlphaScreen SureFire p-SMAD3 (Ser423/425) assay, GDF8-stimulated cells; type: cell-based; conditions: Mus musculus
Source text: (§1) The p-SMAD-3 (Ser423/425) SureFire® assay has been designed to measure the phosphorylation of endogenous cellular p-SMAD-3 (Ser423/425) in cell lysates and is a system for the screening of both modulators of receptor activation (e.g. agonists and antagonists) as well as agents acting intracellularly, such as small molecule inhibitors of upstream events. The assay will measure p-SMAD-3 (Ser423/425) activation by either cloned or endogenous receptors, and can be applied to primary cells.
(§2) 96-well Assay Protocol for 293FT and RMS13 adherent cells can be carried out manually or in high throughput with liquid handling robots.
(§3) The cells (80 μL of cells for 96 well plates) were plated in collagen coated tissue culture plates in RPMI or FreeStyle medium (Invitrogen) and incubated overnight. For manual analysis, 6 plates for GDF8, 6 plates for TGFβ, and optionally 6 plates for Alk5ca(ALK5 constitutively active) were used.
(§4) The compound dilution plates were prepared as follows: 12 μL of DMSO was transferred into first column of 96-well plate, and 16 μL of DMSO was transferred into columns 2-12 of the 96-well plate. 12 μL of compound solution was transferred into first column of the DMSO-containing 96-well plate. Three-fold dilution was performed up to column 10 of the DMSO-containing 96-well plate.
(§5) The plate containing cells were treated with compounds for about 10 minutes, and then ligand was added. GDF8 or TGFb was added to plates to stimulate. 293FL cells were stimulatedfor 90 minutes at 37° C.; and RMS13 cells were stimulated for 60 minutes at 37° C. The medium was then removed from the cells, and 1× Lysis Buffer (about 25 μL) was added and the plate was gently agitated on plate shaker for 5-10 minutes.
(§6) The lysate (5 μL) was then placed into 384-well shallow plates avoiding the generation of bubbles. To this, the Reaction Buffer+Activation Buffer+AlphaScreen® Acceptor beadsmixture (5 μL) was added. The plate was sealed with adhesive cover and shielded from light (e.g., with metal foil), and agitated gently on plate shaker for 2 hours at room temperature.
(§7) Dilution buffer+AlphaScreen® Donor beads (2 μL) was then added, and the plate was intubated on the plate shaker for an additional 1½ hours. After completion, the plate was read on Synergy-4 or Enspire plate reader, using AlphaScreen® pSMAD3® settings.
(§8) Representative results for inhibition of GDF8 (data=GDF pSMAD (MPC11) (μM)) and TGF-β (data=TGF-β pSMAD (MPC-11) (μM)) signaling are shown in Table 1(A=<0.05 μM, B=0.05−<0.1 μM, C=0.1−<1.0 μM, D=>1.0 μM): […]

[2] = tested on: TGF-β; assay: AlphaScreen SureFire p-SMAD3 (Ser423/425) assay, TGF-β-stimulated cells; type: cell-based; conditions: Mus musculus
Source text: as §1, §2, §3, §4, §5, §6, §7, §8

[3] = MPC-11, p-SMAD3 (Ser423/425) AlphaScreen in cell lysate, MPC11, GDF8 stimulation, read-out: GDF8: inhibition of GDF8 signaling, GDF pSMAD (MPC11)
[4] = p-SMAD3 (Ser423/425) AlphaScreen in cell lysate, MPC-11, TGF-β stimulation, read-out: TGF-β: inhibition of TGF-β signaling, TGF-β pSMAD (MPC-11)
[5] = MPC-11, read-out: GDF8: inhibition of GDF8 signaling, GDF pSMAD (MPC11), p-SMAD3 (Ser423/425) AlphaScreen in cell lysate, GDF8 stimulation
[6] = MPC-11, read-out: TGF-β: inhibition of TGF-β signaling, TGF-β pSMAD (MPC-11), p-SMAD3 (Ser423/425) AlphaScreen in cell lysate, TGF-β stimulation

Structure (SMILES)	IC50 [1, 3] [µM]	IC50 [2, 4] [µM]	IC50 [1, 5] [µM]	IC50 [2, 6] [µM]
Cc1cccc(-c2nc3occn3c2I)c1 [Compound 138, 5-iodo-6-(m-tolyl)imidazo[2,1-b]oxazole]	> 1	> 1	–	–
Cc1cc(F)c(Cl)cc1-c1nc2n(c1-c1ccc3ncsc3c1)CCC2 [Compound 297, 6-(2-(5-chloro-4-fluoro-2-methylphenyl)-6,7-dihydro-5H-pyrrolo[1,2-a]imidazol-3-yl)benzo[d]thiazole]	0.1 to 1	0.1 to 1	–	–
Fc1ccc(-c2nc3n(c2-c2ccc4ncsc4c2)CCC3)c(F)c1 [Compound 203, 6-(2-(2,4-difluorophenyl)-6,7-dihydro-5H-pyrrolo[1,2-a]imidazol-3-yl)benzo[d]thiazole]	< 0.05	0.1 to 1	–	–
Fc1cc(F)cc(-c2nc3n(c2-c2ccc4nccnc4c2)CCC3)c1 [Compound 233, 6-(2-(3,5-difluorophenyl)-6,7-dihydro-5H-pyrrolo[1,2-a]imidazol-3-yl)quinoxaline]	–	–	> 1	> 1
CCOC(=O)C1CCC2(CC1)Cc1nc(-c3ccc(F)cc3)c(-c3ccc4nccnc4c3)n1C2 (centres unmarked) [Compound 333, Ethyl 2′-(4-fluorophenyl)-3′-(quinoxalin-6-yl)-5′H,7′H-spiro[cyclohexane-1,6′-pyrrolo[1,2-a]imidazole]-4-carboxylate]	–	–	> 1	> 1
Cc1cc(-c2nc3n(c2-c2ccc4ncnn4c2)CCC3)c(Cl)cc1F [Compound 69, 6-(2-(2-chloro-4-fluoro-5-methylphenyl)-6,7-dihydro-5H-pyrrolo[1,2-a]imidazol-3-yl)-[1,2,4]triazolo[1,5-a]pyridine]	0.05 to 0.1	0.1 to 1	–	–
[N-]=[N+]=NCC1CCC2(CC1)Cc1nc(-c3ccc(F)cc3)c(-c3ccc4ncnn4c3)n1C2 (centres unmarked) [Compound 85, 3′-([1,2,4]triazolo[1,5-a]pyridin-6-yl)-4-(azidomethyl)-2′-(4-fluorophenyl)-5′H,7′H-spiro[cyclohexane-1,6′-pyrrolo[1,2-a]imidazole]]	> 1	> 1	–	–
Fc1cc(F)c(-c2nc3n(c2-c2ccc4ncnn4c2)CCN3)cc1F [Compound 105, 6-(6-(2,4,5-trifluorophenyl)-2,3-dihydro-1H-imidazo[1,2-a]imidazol-5-yl)-[1,2,4]triazolo[1,5-a]pyridine]	< 0.05	< 0.05	–	–
Fc1ccc(-c2nc3n(c2-c2ccc4[nH]ncc4c2)CC2(CCCC2)C3)cc1 [Compound 324, 2′-(4-fluorophenyl)-3′-(1H-indazol-5-yl)-5′H,7′H-spiro[cyclopentane-1,6′-pyrrolo[1,2-a]imidazole]]	–	–	> 1	> 1
Cc1cc(F)c(F)cc1-c1nc2n(c1-c1ccc3ncc(C(N)=O)n3c1)CCC2 [Compound 52, 6-(2-(4,5-difluoro-2-methylphenyl)-6,7-dihydro-5H-pyrrolo[1,2-a]imidazol-3-yl)imidazo[1,2-a]pyridine-3-carboxamide]	< 0.05	0.05 to 0.1	–	–
Fc1ccc(-c2nc3n(c2-c2ccc4nccnc4c2)CCC3)cc1 [Compound 178, 6-(2-(4-fluorophenyl)-6,7-dihydro-5H-pyrrolo[1,2-a]imidazol-3-yl)quinoxaline]	–	–	0.1 to 1	> 1
Fc1cc(F)cc(-c2nc3n(c2-c2ccc4cn[nH]c4c2)CCC3)c1 [Compound 231, 6-(2-(3,5-difluorophenyl)-6,7-dihydro-5H-pyrrolo[1,2-a]imidazol-3-yl)-1H-indazole]	–	–	0.1 to 1	> 1
Fc1cc(-c2nc3n(c2-c2ccc4ncnn4c2)CCC3)cc(F)c1F [Compound 16, 6-(2-(3,4,5-trifluorophenyl)-6,7-dihydro-5H-pyrrolo[1,2-a]imidazol-3-yl)-[1,2,4]triazolo[1,5-a]pyridine]	0.1 to 1	> 1	–	–
Fc1cc(Cl)c(-c2nc3n(c2-c2ccc4ncnn4c2)CCC3)cc1F [Compound 49, 6-(2-(2-chloro-4,5-difluorophenyl)-6,7-dihydro-5H-pyrrolo[1,2-a]imidazol-3-yl)-[1,2,4]triazolo[1,5-a]pyridine]	0.1 to 1	0.1 to 1	–	–
Cc1c(F)ccc(-c2nc3n(c2-c2ccc4ncnn4c2)CCC3)c1C [Compound 73, 6-(2-(4-fluoro-2,3-dimethylphenyl)-6,7-dihydro-5H-pyrrolo[1,2-a]imidazol-3-yl)-[1,2,4]triazolo[1,5-a]pyridine]	–	–	0.1 to 1	> 1
Cc1cc(-c2nc3n(c2-c2ccc4nccnc4c2)CCC3)cc(C)c1Cl [Compound 245, 6-(2-(4-chloro-3,5-dimethylphenyl)-6,7-dihydro-5H-pyrrolo[1,2-a]imidazol-3-yl)quinoxaline]	> 1	> 1	–	–
COCCOc1cnc2ccc(-c3c(-c4cc(Cl)ccc4F)nc4n3CCC4)cc2n1 [Compound 354, 7-(2-(5-chloro-2-fluorophenyl)-6,7-dihydro-5H-pyrrolo[1,2-a]imidazol-3-yl)-2-(2-methoxyethoxy)quinoxaline]	–	–	0.05 to 0.1	< 0.05
Cc1cc(F)c(-c2nc3n(c2-c2ccc4ncnn4c2)CCC3)cc1F [Compound 47, 6-(2-(2,5-difluoro-4-methylphenyl)-6,7-dihydro-5H-pyrrolo[1,2-a]imidazol-3-yl)-[1,2,4]triazolo[1,5-a]pyridine]	> 1	> 1	–	–
Fc1cccc(F)c1-c1nc2n(c1-c1ccc3ncccc3c1)CCC2 [Compound 216, 6-(2-(2,6-difluorophenyl)-6,7-dihydro-5H-pyrrolo[1,2-a]imidazol-3-yl)quinoline]	> 1	> 1	–	–
Fc1ccc(-c2nc3occn3c2-c2ccc3nccnc3c2)c(F)c1 [Compound 157, 6-(2,4-difluorophenyl)-5-(quinoxalin-6-yl)imidazo[2,1-b]oxazole]	0.1 to 1	0.1 to 1	–	–
Cc1ccccc1-c1nc2n(c1-c1ccc3[nH]ncc3c1)CCC2 [Compound 304, 5-(2-(o-tolyl)-6,7-dihydro-5H-pyrrolo[1,2-a]imidazol-3-yl)-1H-indazole]	> 1	> 1	–	–
Cc1cc(-c2nc3n(c2-c2ccc4ncccc4c2)CCC3)cc(Cl)c1F [Compound 275, 6-(2-(3-chloro-4-fluoro-5-methylpheny)-6,7-dihydro-5H-pyrrolo[1,2-a]imidazol-3-yl)quinoline]	> 1	> 1	–	–
OCC1Cn2c(nc(-c3cc(F)cc(F)c3F)c2-c2ccc3ncnn3c2)N1 (centres unmarked) [Compound 121, (5-([1,2,4]triazolo[1,5-a]pyridin-6-yl)-6-(2,3,5-trifluorophenyl)-2,3-dihydro-1H-imidazo[1,2-a]imidazol-2-yl)methanol]	< 0.05	< 0.05	–	–
Cc1ccc(-c2ccc3ncnn3c2)cc1-c1nc2n(c1-c1ccc3ncnn3c1)CCC2 [Compound 91, 6-(2-(5-([1,2,4]triazolo[1,5-a]pyridin-6-yl)-2-methylphenyl)-6,7-dihydro-5H-pyrrolo[1,2-a]imidazol-3-yl)-[1,2,4]triazolo[1,5-a]pyridine]	> 1	> 1	–	–
c1ccc(C2=C(c3ccc4cn[nH]c4c3)C3CCCC3=N2)nc1 (centres unmarked) [Compound 366, 6-(2-(pyridin-2-yl)-3a,4,5,6-tetrahydrocyclopenta[b]pyrrol-3-yl)-1H-indazole]	< 0.05	0.05 to 0.1	–	–
Fc1cc(F)c(-c2nc3n(c2-c2cc4cnccc4s2)CCN3)cc1F [Compound 116, 2-(6-(2,4,5-trifluorophenyl)-2,3-dihydro-1H-imidazo[1,2-a]imidazol-5-yl)thieno[3,2-c]pyridine]	< 0.05	< 0.05	–	–
Cc1cccc(-c2nc3n(c2-c2ccc4ncsc4c2)CCC3)n1 [Compound 364, 6-(2-(6-methylpyridin-2-yl)-6,7-dihydro-5H-pyrrolo[1,2-a]imidazol-3-yl)benzo[d]thiazole]	–	–	–	< 0.05
